Measured values from patent US4471131A, “Novel silyl esters of N-phosphonomethylglycine” (Monsanto Company, priority 1983, dated 1984).

Assays:
Assay in all cases: post-emergence herbicidal activity, greenhouse
Type in all cases: in vivo
Settings in all cases: Table II, formulated immediately prior to treatment
Barnyardgrass = system: Barnyardgrass
From the text: (§1) A good grade of top soil is placed in aluminum pans having holes in the bottom and compacted to a depth of 0.95 to 1.27 cm. from the top of the pan. A predetermined number of seeds of each of several dicotyledonous and moncotyledonous annual plant species and/or vegetative propagules for the perennial plant species were placed on the soil and pressed into the soil surface. The seeds and/or vegetative propagules are covered with soil and leveled. The pans are then placed on a sand bench in the greenhouse and watered from below as needed. After the plants reach the desired age (two to three weeks), each pan, except for the control pans, is removed individually to a spraying chamber and sprayed by means of an atomizer at the rates noted. In the spray solution is an amount of an emulsifying agent mixture to give a spray solution or suspension which contains about 0.4% by weight of the emulsifier. The spray solution or suspension contains a sufficient amount of the candidate chemical in order to give application rates corresponding to those set forth in the tables. The pans were returned to the greenhouse and watered as before and the injury to the plants as compared to the control is observed at approximately two and four weeks and the results recorded. In the tables, WAT means "weeks after treatment."
(§2) The post-emergent herbicidal activity index used in Tables II and III is as follows:
(§3) The plant species utilized in these tests are identified by letter in accordance with the following legend: […]

Canada Thistle = system: Canada Thistle
From the text: as §1, §2, §3

Cocklebur = system: Cocklebur
From the text: as §1, §2, §3

Common Lambsquarters = system: Common Lambsquarters
From the text: as §1, §2, §3

Downy Brome = system: Downy Brome
From the text: as §1, §2, §3

Johnsongrass = system: Johnsongrass
From the text: as §1, §2, §3

Morningglory = system: Morningglory
From the text: as §1, §2, §3

Pennsylvania Smartweed = system: Pennsylvania Smartweed
From the text: as §1, §2, §3

Quackgrass = system: Quackgrass
From the text: as §1, §2, §3

Velvetleaf = system: Velvetleaf
From the text: as §1, §2, §3

Yellow Nutsedge = system: Yellow Nutsedge
From the text: as §1, §2, §3

CC(C)(C)[Si](C)(C)OC(=O)CNCP(=O)(O[Si](C)(C)C(C)(C)C)O[Si](C)(C)C(C)(C)C [Ex. 9, Glycine, N--((Bis[((1,1-Dimethylethyl)Dimethylsilyl)Oxy]Phosphinyl)Methyl),-(1,1-Dimethylethyl)Dimethylsilylester]
2 (50-74% inhibition): Plant Response Index (K) (Barnyardgrass; 4 WAT, 11.2 kg/h) | Plant Response Index (A) (Canada Thistle; 4 WAT, 5.6 kg/h) | Plant Response Index (B) (Cocklebur; 2 WAT, 11.2 kg/h) | Plant Response Index (B) (Cocklebur; 4 WAT, 5.6 kg/h) | Plant Response Index (B) (Cocklebur; 4 WAT, 11.2 kg/h) | Plant Response Index (E) (Common Lambsquarters; 4 WAT, 11.2 kg/h) | Plant Response Index (D) (Morningglory; 2 WAT, 5.6 kg/h) | Plant Response Index (D) (Morningglory; 2 WAT, 11.2 kg/h) | Plant Response Index (D) (Morningglory; 4 WAT, 5.6 kg/h) | Plant Response Index (D) (Morningglory; 4 WAT, 11.2 kg/h) | Plant Response Index (C) (Velvetleaf; 2 WAT, 11.2 kg/h) | Plant Response Index (C) (Velvetleaf; 4 WAT, 11.2 kg/h) | Plant Response Index (G) (Yellow Nutsedge; 4 WAT, 5.6 kg/h) | Plant Response Index (G) (Yellow Nutsedge; 4 WAT, 11.2 kg/h)
0 (0-24% inhibition): Plant Response Index (E) (Common Lambsquarters; 2 WAT, 5.6 kg/h) | Plant Response Index (E) (Common Lambsquarters; 2 WAT, 11.2 kg/h) | Plant Response Index (J) (Downy Brome; 2 WAT, 5.6 kg/h) | Plant Response Index (H) (Quackgrass; 2 WAT, 5.6 kg/h) | Plant Response Index (H) (Quackgrass; 2 WAT, 11.2 kg/h) | Plant Response Index (H) (Quackgrass; 4 WAT, 5.6 kg/h) | Plant Response Index (H) (Quackgrass; 4 WAT, 11.2 kg/h)
1 (25-49% inhibition): Plant Response Index (K) (Barnyardgrass; 2 WAT, 5.6 kg/h) | Plant Response Index (K) (Barnyardgrass; 2 WAT, 11.2 kg/h) | Plant Response Index (K) (Barnyardgrass; 4 WAT, 5.6 kg/h) | Plant Response Index (A) (Canada Thistle; 2 WAT, 5.6 kg/h) | Plant Response Index (A) (Canada Thistle; 2 WAT, 11.2 kg/h) | Plant Response Index (A) (Canada Thistle; 4 WAT, 11.2 kg/h) | Plant Response Index (B) (Cocklebur; 2 WAT, 5.6 kg/h) | Plant Response Index (E) (Common Lambsquarters; 4 WAT, 5.6 kg/h) | Plant Response Index (J) (Downy Brome; 2 WAT, 11.2 kg/h) | Plant Response Index (J) (Downy Brome; 4 WAT, 5.6 kg/h) | Plant Response Index (J) (Downy Brome; 4 WAT, 11.2 kg/h) | Plant Response Index (I) (Johnsongrass; 2 WAT, 5.6 kg/h) | Plant Response Index (I) (Johnsongrass; 2 WAT, 11.2 kg/h) | Plant Response Index (I) (Johnsongrass; 4 WAT, 5.6 kg/h) | Plant Response Index (I) (Johnsongrass; 4 WAT, 11.2 kg/h) | Plant Response Index (F) (Pennsylvania Smartweed; 2 WAT, 5.6 kg/h) | Plant Response Index (F) (Pennsylvania Smartweed; 2 WAT, 11.2 kg/h) | Plant Response Index (F) (Pennsylvania Smartweed; 4 WAT, 5.6 kg/h) | Plant Response Index (F) (Pennsylvania Smartweed; 4 WAT, 11.2 kg/h) | Plant Response Index (C) (Velvetleaf; 2 WAT, 5.6 kg/h) | Plant Response Index (C) (Velvetleaf; 4 WAT, 5.6 kg/h) | Plant Response Index (G) (Yellow Nutsedge; 2 WAT, 5.6 kg/h) | Plant Response Index (G) (Yellow Nutsedge; 2 WAT, 11.2 kg/h)
